Results published in US20210115000A1, “NILE RED DERIVATIVES FOR IMPROVED RATIOMETRIC IMAGING FOR NERVE SPECIFIC CONTRAST” (Oregon Health & Sciences University, priority 2018, published 2021).

What was measured:
[1] = test system: U2OS human osteosarcoma cell line; assay: Nile Red derivative cell staining and imaging, fixed and live cells; format: cell-based; conditions: U2OS live, 1 μM, 5 min, imaged in staining solution
Procedure: The U2OS human osteosarcoma cell line was cultured in Dulbecco's Modified Eagle Medium (DMEM, Thermo Fisher Scientific, Waltham, Mass.) with 10% fetal bovine serum (FBS, VWR, Radnor, Pa.) and 1% Penicillin/Steptomycin 100× (Thermo Fisher Scientific) at 37° C. in 5% CO2. For live cell imaging studies, Fluorobrite DMEM media (Thermo Fisher Scientific) was used in place of DMEM. For imaging studies, cells were grown in 96-well glass bottom plates (Cellvis, Mountain View, Calif.) for 48 hours, with a final confluence of <80%. Nile Red and its derivatives were prepared at 1-10 mM stock concentration in DMSO and diluted into media or buffer for cell staining and imaging studies.
Cell staining studies were completed on fixed and live U2OS cells using Nile Red and each synthesized Nile Red derivative described as follows. For fixed cell staining, cells were washed once with 1× phosphate buffered saline (PBS), then fixed with 4% paraformaldehyde (PFA) for 20 minutes at room temperature. The PFA was removed and each well was washed three times for 5 mins per wash (3×5 mins) with 1×PBS. The Nile Red fluorophores were diluted into 1×PBS to a final concentration of 1 μM, incubated for 5 minutes with the cells, and images were collected without washing. Live cell staining was completed using two methods. First, cells were washed once with Fluorobrite DMEM. The Nile Red fluorophore solution was prepared in Fluorobrite DMEM by diluting to a final concentration of 1 μM for staining, where cells were stained for 5 minutes. The fluorophore containing media was removed and the cells were fixed for 20 minutes using 4% PFA. Cells were then washed 3×5 mins with Fluorobrite DMEM prior to imaging. Second, cells were washed with Fluorobrite DMEM without FBS once for 5 minutes. Nile Red fluorophore solutions were prepared in Fluorobrite without FBS at 1 μM final concentration for cell staining. The cells were stained with the prepared solution for 5 minutes and imaged in the staining solution. All images were collected at their ideal exposure times to permit visualization of stained intracellular structures.
All ex vivo and cellular fluorescence and white light images were collected using a Zeiss AxioObserver inverted fluorescence microscope (Carl Zeiss, Oberkochen, Germany). All cell images were collected at 40× magnification and all tissue section images were collected at 10× magnification. Fluorescence excitation was completed using a Photofluor II broad band light source (89 North, Burlington, Vt.) filtered with a 545±12.5 nm bandpass excitation filter. Fluorescence images were collected using a 605±35 nm bandpass emission filter and a AxioCam 506 monochromo camera (Zeiss). All Filters were Purchased from Chroma Technologies (Bellows Falls, Vt.).

[2] = test system: sciatic nerve or brachial plexus nerve sites (adipose, nerve, muscle tissue); assay: In vivo imaging following direct/topical administration on rodent nerve sites; parameters: species or system male CD-1 mice; conditions: immediately following direct administration
From the text: In vivo images were acquired using a previously published, custom-built small animal fluorescence imaging system, described briefly here.^27 Fluorescent images were obtained using a Qimaging EXi Blue monochrome camera (Surrey, British Columbia, CA) with a removable Bayer mask for collection of co-registered color and fluorescence images. A Photofluor II broad band light source (89 North) was expanded onto the surgical field through a liquid light guide and used unfiltered for white light illumination. Nile Red and NR5 were excitated using a 545 t 12.5 nm bandpass filter, while fluorescence emission images were collected with a 605±35 nm bandpass filter. Oxazine 4 (Exciton, West Chester, Ohio) was used for nerve and adipose co-staining and ratiometic imaging studies. Oxazine 4 was excited using a 620±30 nm bandpass filter, while fluorescence emission images were collected through a 700±37.5 nm bandpass filter. Approval for the use of animals in the study was obtained from the Institutional Animal Care and Use Committee (IACUC) at Oregon Health and Science University (OHSU). In vivo staining studies were carried out on male CD-1 mice using an optimized direct/topical administration protocol.^2 Staining was performed concurrently on no more than two nerve sites (sciatic nerve or brachial plexus) per mouse. Nile Red and all Nile Red derivatives were formulated in a previously published co-solvent formulation (10% DMSO, 5% Kolliphor, 63.75% serum and 21.25% PBS^14) at a final concentration of 100 μM. Each formulated fluorophore was incubated for 5 minutes on the nerve site (n=4 nerve sites/fluorophore), followed by 9 short flushes with PBS. The nerve site was then incubated with blank co-solvent not containing fluorophore for 5 minutes, followed again by 9 short flushes with PBS.

[3] = Spectroscopic analysis: absorbance, emission and quantum yield of Nile Red derivatives; format: physicochemical; conditions: in DMSO
Procedure: Tandem liquid chromatography mass spectroscopy (LCMS) analysis (Agilent 1260 LC system with a 6224 time of flight (TOF) MS, Agilent, Santa Clara, Calif.) was performed using a 2.7 micron C18 column (4.6×50 mm, Agilent). High performance liquid chromatography (HPLC) purification (Agilent 1260 system with a preparative pump) was performed using a 5 micron C18 column (21.2×150 mm, Agilent). For both HPLC and LCMS, the mobile phase consisted of HPLC grade acetonitrile and water, treated with 0.1% formic acid. Spectroscopic analysis was performed on a Spectramax M5 spectrometer (Molecular Devices, Sunnyvale, Calif.) using a quartz cuvette with a 1 cm pathlength. Quantum yield was calculated according to equation (1).
Where Ø is the quantum yield, F is the integrated fluorescence intensity, f is the absorbance at the excitation wavelength and n is the refractive index of the solvent. S refers to the quantum yield standard (Rhodamine B)^25 and X refers to the unknown sample.

[4] = test system: CD-1 mouse sciatic nerve and surrounding muscle and adipose tissues; assay: Ex vivo tissue section staining, imaging and fluorescence quantification; conditions: 100 μM, 40 min, sections with nerve, muscle, adipose
Procedure: Cryosections of CD-1 mouse sciatic nerve and surrounding muscle and adipose tissues from unrelated experiments were cut from optimal cutting temperature (OCT, Fisher Scientific, Hampton, N.H.) embedded frozen tissues. Cryosectioned tissues were captured on superfrost plus slides (Fisher Scientific) at 10 μm thickness. The tissue sections were washed with 1×PBS for 2 minutes to remove OCT, and then fixed with 2% PFA for 15 mins. The tissue sections were then washed with 0.1% Tween 20 in 1×PBS (3×5 mins), followed by incubation with 100 μM of Nile Red and each Nile Red derivative formulated using 10% DMSO, 5% Kolliphore (Sigma Aldrich, St. Louis, Mo.), 63.75% FBS, and 21.25% 1× PBS as previously described.^26 Tissue sections were incubated with the formulated fluorophores for 40 minutes at room temperature, followed by washing with blank formulation not containing fluorophore (2×5 mins). Each tissue section was then washed with 1×PBS (2×5 mins), fixed for 15 minutes using 2% PFA, followed by a final wash with 1×PBS for 5 mins before mounting in glycerol (Fisher Scientific). Images were collected at an exposure time of 650 ms for all Nile Red and Nile Red derivative stained sections. Four tissue sections were stained for Nile Red and each Nile Red derivative, facilitating adipose to muscle and adipose to nerve contrast ratio quantification where tissue intensities were quantified using region of interest analysis with custom written MatLab code (The MathWorks, Natick, Mass.). For each tissue type, a representative area was selected, where a threshold based mask was set to determine tissue from background. The mean tissue intensity was calculated in adipose, nerve and muscle tissues as the intensity per second and used to calculate the adipose to nerve and adipose to muscle contrast ratios. All ex vivo and cellular fluorescence and white light images were collected using a Zeiss AxioObserver inverted fluorescence microscope (Carl Zeiss, Oberkochen, Germany). All cell images were collected at 40× magnification and all tissue section images were collected at 10× magnification. Fluorescence excitation was completed using a Photofluor II broad band light source (89 North, Burlington, Vt.) filtered with a 545±12.5 nm bandpass excitation filter. Fluorescence images were collected using a 605±35 nm bandpass emission filter and a AxioCam 506 monochromo camera (Zeiss). All Filters were Purchased from Chroma Technologies (Bellows Falls, Vt.).

Compound: CCN(CC)c1ccc2nc3c4cc(-c5ccc(C#N)cc5)ccc4c(=O)cc-3oc2c1 [NR12, 4-(9-(diethylamino)-5-oxo-5H-benzo[a]phenoxazin-2-yl)benzonitrile]
- structures observed in live cells without washing [1]: Prominent lipid droplet like structures
- adipose to muscle ratio [2]: lower than Nile Red, adipose to muscle contrast was similar
- adipose to nerve ratio [2]: increased contrast over control autofluorescence with similar adipose to nerve contrast
- Max Abs [3]: 560 nm
- Max Em [3]: 635 nm
- Stokes Shift [3]: 75 nm
- tissue staining specificity on mouse tissue sections [4]: adipose specificity
